According to the supplement of paper PMC11061612:

How the values were obtained:
Assay in all cases: Bliss excess, mean over the matrix (fraction); higher = more synergy
[1] = test system: KMRC-1 (Kidney Carcinoma)
In short: (§1)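 Bliss excess equals the observed combination effect minus the expected value EA + EB − EA·EB, where EA and EB are the effects of each agent alone. Combination Emax is the second-highest inhibition within the matrix. Inhibition was scaled from CellTiter-Glo 2.0 luminescence, with 0 set by vehicle wells and 1 by blank wells, after 72 hours of two-drug dosing of cells plated in 1536-well plates.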

[2] = test system: COLO-679 (Melanoma)
In short: as §1

[3] = test system: COLO-668 (Small Cell Lung Carcinoma)
In short: as §1

[4] = test system: NCI-H1092 (Small Cell Lung Carcinoma)
In short: as §1

[5] = test system: SKN (Other Solid Carcinomas)
In short: as §1

[6] = test system: A4-Fuk (B-Lymphoblastic Leukemia)
In short: as §1

[7] = test system: SK-LU-1 (Lung Adenocarcinoma)
In short: as §1

[8] = test system: HCC1937 (Breast Carcinoma)
In short: as §1

[9] = test system: Mo-T (Other Blood Carcinomas)
In short: as §1

[10] = test system: ML-2 (Acute Myeloid Leukemia)
In short: as §1

[11] = test system: HCC1500 (Breast Carcinoma)
In short: as §1

[12] = test system: G-401 (Other Solid Carcinomas)
In short: as §1

[13] = test system: EJM (Plasma Cell Myeloma)
In short: as §1

[14] = test system: Hey (Ovarian Carcinoma)
In short: as §1

[15] = test system: MOLT-4 (T-Lymphoblastic Leukemia)
In short: as §1

[16] = test system: NCI-H1993 (Lung Adenocarcinoma)
In short: as §1

[17] = test system: KGN (Other Solid Carcinomas)
In short: as §1

[18] = test system: SNU-387 (Hepatocellular Carcinoma)
In short: as §1

[19] = test system: NCI-H1355 (Lung Adenocarcinoma)
In short: as §1

[20] = test system: MV-4-11 (Acute Myeloid Leukemia)
In short: as §1

SMILES | Bliss excess [1] | Bliss excess [2] | Bliss excess [3] | Bliss excess [4] | Bliss excess [5] | Bliss excess [6] | Bliss excess [7] | Bliss excess [8] | Bliss excess [9] | Bliss excess [10] | Bliss excess [11] | Bliss excess [12] | Bliss excess [13] | Bliss excess [14] | Bliss excess [15] | Bliss excess [16] | Bliss excess [17] | Bliss excess [18] | Bliss excess [19] | Bliss excess [20]
NC1(C(=O)N[C@@H](CCO)c2ccc(Cl)cc2)CCN(c2ncnc3[nH]ccc23)CC1 [Capivasertib] + Cn1cnc2c(F)c(Nc3ccc(Br)cc3Cl)c(C(=O)NOCCO)cc21 [Selumetinib] (first compound max 10 µM, 7x7, partner max 10 µM) | 0.0071 | -0.0912 | -0.0088 | -0.0225 | -0.0264 | 0.0675 | -0.0486 | -0.0079 | 0.0563 | 0.0654 | 0.0004 | 0.0695 | 0.08 | -0.0041 | 0.0752 | 0.0372 | -0.0041 | -0.0521 | 0.0132 | 0.0842
CS(=O)(=O)CCNCc1ccc(-c2ccc3ncnc(Nc4ccc(OCc5cccc(F)c5)c(Cl)c4)c3c2)o1 [Lapatinib] + C[C@@H](Oc1cc(-c2cnn(C3CCNCC3)c2)cnc1N)c1c(Cl)ccc(F)c1Cl [Crizotinib] (first compound max 10 µM, 7x7, partner max 10 µM) | -0.0725 | -0.066 | -0.0594 | 0.0103 | -0.0289 | -0.0407 | -0.0582 | -0.0404 | -0.0658 | -0.0133 | 0.0412 | -0.0617 | -0.0001 | -0.0526 | -0.0084 | 0.0268 | -0.0702 | -0.0754 | -0.0141 | -0.0106
CC(=O)c1c(C)c2cnc(Nc3ccc(N4CCNCC4)cn3)nc2n(C2CCCC2)c1=O [Palbociclib] + CC1(C)CCC(CN2CCN(c3ccc(C(=O)NS(=O)(=O)c4ccc(NCC5CCOCC5)c([N+](=O)[O-])c4)c(Oc4cnc5[nH]ccc5c4)c3)CC2)=C(c2ccc(Cl)cc2)C1 [Venetoclax] (first compound max 10 µM, 7x7, partner max 1 µM) | -0.0653 | -0.0676 | -0.0554 | -0.0224 | -0.0402 | -0.0926 | 0.0024 | -0.0578 | -0.0648 | 0.0634 | -0.0899 | 0.0529 | -0.0211 | 0.0511 | -0.0654 | 0.0108 | 0.079 | -0.0558 | -0.0031 | -0.0213
CC(=O)c1c(C)c2cnc(Nc3ccc(N4CCNCC4)cn3)nc2n(C2CCCC2)c1=O [Palbociclib] + Cc1c2c(nn1C)CSCc1cc(n(C)n1)CSc1cc(c3ccccc3c1)OCCCc1c(C(=O)O)n(C)c3c-2c(Cl)ccc13 [AZD5991] (first compound max 10 µM, 7x7, partner max 1 µM) | -0.0363 | -0.107 | -0.0288 | -0.0646 | -0.0465 | 0.0579 | -0.0693 | -0.0498 | -0.0208 | 0.0133 | -0.0145 | 0.0308 | -0.0517 | -0.0205 | -0.0073 | 0.0186 | -0.0665 | -0.0515 | -0.0147 | 0.0127
CC(=O)c1c(C)c2cnc(Nc3ccc(N4CCNCC4)cn3)nc2n(C2CCCC2)c1=O [Palbociclib] + Cn1cnc2c(F)c(Nc3ccc(Br)cc3Cl)c(C(=O)NOCCO)cc21 [Selumetinib] (first compound max 10 µM, 7x7, partner max 10 µM) | -0.0461 | 0.0157 | 0.0008 | -0.0322 | 0.0085 | 0.132 | -0.0422 | -0.0788 | -0.0225 | 0.0685 | -0.0229 | -0.0428 | -0.0193 | 0.0222 | -0.012 | 0.0904 | 0 | -0.0425 | 0.0542 | 0.0537
Cn1cnc2c(F)c(Nc3ccc(Br)cc3Cl)c(C(=O)NOCCO)cc21 [Selumetinib] + C=CCn1c(=O)c2cnc(Nc3ccc(N4CCN(C)CC4)cc3)nc2n1-c1cccc(C(C)(C)O)n1 [AZD1775] (first compound max 10 µM, partner max 1 µM) | -0.0061 | -0.0285 | -0.0563 | -0.0961 | -0.0294 | -0.0651 | 0.0035 | -0.0357 | -0.0318 | -0.0186 | -0.0261 | -0.0483 | -0.0146 | -0.0363 | -0.02 | 0.0225 | -0.115 | -0.0766 | -0.0037 | 0.0249
Cn1cnc2c(F)c(Nc3ccc(Br)cc3Cl)c(C(=O)NOCCO)cc21 [Selumetinib] + CC(C)n1c(=O)n(C)c2cnc3cc(F)c(-c4ccc(OCCCN5CCCCC5)nc4)cc3c21 [AZD1390] (first compound max 10 µM, 7x7, partner max 0.3 µM) | -0.0685 | -0.0416 | 0.0314 | -0.0468 | -0.0616 | 0.0335 | -0.02 | -0.0161 | -0.0339 | -0.0506 | -0.0156 | -0.0623 | -0.0131 | -0.0378 | 0.0535 | -0.0741 | 0.0282 | -0.0512 | 0.0043 | -0.0719
Cn1cnc2c(F)c(Nc3ccc(Br)cc3Cl)c(C(=O)NOCCO)cc21 [Selumetinib] + CCN(CCO)CCCOc1ccc2c(Nc3cc(CC(=O)Nc4cccc(F)c4)[nH]n3)ncnc2c1 [AZD2811] (first compound max 10 µM, 7x7, partner max 1 µM) | -0.0101 | -0.0381 | -0.0161 | -0.0083 | -0.068 | 0.176 | -0.098 | 0.016 | -0.0328 | -0.0371 | -0.0123 | 0.0143 | 0.0145 | -0.0165 | 0.0174 | 0.0327 | -0.0586 | -0.0412 | 0.0102 | -0.04
Cn1cnc2c(F)c(Nc3ccc(Br)cc3Cl)c(C(=O)NOCCO)cc21 [Selumetinib] + C[C@@H]1COCCN1C2=NC(=NC(=C2)C3(CC3)[S@](=N)(=O)C)C4=C5C=CNC5=NC=C4 [AZD6738] (first compound max 10 µM, 7x7, partner max 10 µM) | -0.0303 | -0.0526 | 0.038 | -0.0466 | 0.0406 | -0.0481 | -0.116 | 0.0414 | -0.0055 | -0.0373 | -0.0346 | 0.0257 | -0.0321 | -0.0014 | -0.0181 | -0.0274 | -0.0817 | -0.0126 | -0.0213 | -0.0369
